Laboratory results taken from patent EP2397149A1 (Hil-Invent Ges.M.B.H., priority 2010, dated 2011).
Where two headings read alike, the source gives them in different places. Starred links: 1 amine or outer side, 2 acyl side, 3 side chain; linkers in the order of their positions; H or OH if unused. Positions of bridges follow the written chain, without caps; N, C: chain ends. Non-standard residues stand in square brackets, D forms with d. Residues, ends and D or L forms follow the SMILES beside them. Chains are numbered I, II in the order given. Actinocin(9to1) = Cc1c2oc3c(C)ccc(C(=O)[*:1])c3nc-2c(C(=O)[*:2])c(N)c1=O; NMeV = CN[C@H](C(=O)O)C(C)C; Sar = CNCC(=O)O

Assays:
[1] = test system: B-CLL cells; test: IC50 determination (XTT dye, 48 h); assay type: cell-based, human
Procedure: 1.5 x 10^6 B-CLL cells and 0.4 x 10^6 CEM-C7H2 cells per well were incubated with different concentrations of the respective substance (0,2, 0,5, 1, 2, 5, 10, 20 µM) and incubated for 48 h. After this XTT-dye solution was added as described above and absorption was measured at 450 nm with 655 nm as reference wavelength. Concentrations that led to a 50 % metabolism reduction were monitored as IC50 value.
Finally, the substances were tested for their toxicity in cell lines from different parts of the human body such as liver (HepG2), kidney (HEK-293), lung (SHP-77), skin keratinocytes (WS-1) and in human umbilical vein endothelial cells from 3 different donors. […] For these substances the mean IC50 (48h) in 4 B-CLL cells samples from 4 different donors was determined and the substances were numbered beginning with the lowest IC50 in B-CLL cells.

[2] = test system: B-CLL cells bearing the chromosomal aberration del(17p)13; test: Viability / apoptosis of del(17p)13 B-CLL cells (flow cytometry, AnnexinV/7-AAD); assay type: cell-based, human; settings: for viability reduction: 160 nM
Procedure: (§1) Viability was measured using flow-cytometry (AnnexinV/7-AAD,-/-). […] The length of the box corresponds to the interquartile range (IQR) and is the difference between the 75th and 25th percentiles. The horizontal line in the box is the median. […] Viability of B-CLL cells was assessed using a flow-cytometer (Annex-inV/7-AAD -/-). The length of the box corresponds to the interquartile range (IQR) and is the difference between the 75th and 25th percentiles. The horizontal line in the box is the median. […] Day zero is the day of engraftment with 3x10^6 lymphocytes derived from TCL1 transgenic mice with overt leukemia. […] Blood samples were collected from the tail vein of the respective animal and whole blood was analysed for CD5/CD19 positive cells using a flow-cytometer. […] Dashed line is 0.04 mg/kg and black line is 0.05 mg/kg daily for two weeks.
The supplied substances were solved in 100 µl medium at 37°C 90 min on a rotation shaker and transferred to a 96-well plated. Then 100µl medium containing 1.5 x 10^6 B-CLL cells was added. Final concentration of the substances was 20 µM. After a incubation time of 48 h 50 µl XTT-dye was added and absorption measured as above. […] Only substances that reduced the cell metabolism/dye development > 50 % were counted. The reason for this higher cut off value is the low proliferative activity of B-CLL cells who are mainly in Go arrest. Positive substances were double checked with Annex-inV/7-AAD apoptosis/necrosis staining in CD19+/CD5+ positive cells on a flow cytometer.

[3] = test system: colon cancer cell line HCT116; test: Sensitivity of isogenic HCT116 with or without p53 deletion; assay type: cell-based
[4] = test system: engrafted B-CLL mice (CD5/CD19 cells)
Procedure: (§2) The original Eµ-TCL1a transgenic mice which were generously provided by C. Croce (Ohio) have been back-crossed for > 9 generations to C57BL/6 mice. Mice were killed at stated ages, or when signs of illness developed, and samples for histology, flow cytometry, and miRNA isolation were collected. The tumor load in all lymphoid organs was assessed by flow cytometry following staining for the surface markers CD19, CD5, and IgM. Approval from the Austrian Animal Ethics committee was obtained prior to performing the experiments. Engrafted mice were produced by injecting 3 x 10^6 lymphocytes of a leukemic Eµ-TCL1a transgenic mouse into 30 Black 6 mice from Charles River Laboratories, Sulzfeld, Germany.
First a treatment study included 10 mice.
To assess tumour load development after treatment blood samples were collected from the tail vein (Fig. 4).

[5] = test system: engrafted CLL mice (CD5/CD19 cells); test: Treatment study 02: reduced actinomycin D concentrations in murine B-CLL model; assay type: in vivo
Procedure: as §2
In example 1 a treatment schedule of 0.06 mg/kg daily for two weeks was used. […] To assess the tumour load blood samples were consecutively taken from the tail vein.

[6] = test system: engrafted wildtype (C57BL/6) mice (CD5+/CD19+ cells); test: Treatment study 03: head to head comparison of actinomycin D and fludarabine; assay type: in vivo; settings: for 50 % survival time after start of treatment / tumour load reduction: actinomycin D 0.06 mg/kg daily for 14 days, fludarabine 34 mg/kg for 5 days; for tumour load reduction: day 22 after treatment start, vs untreated mice
Procedure: as §1, §2
At day 22 after treatment start tumour load was assessed compared to that of the tumour load of untreated mice.

[7] = test system: B-CLL cells of patients with no p53 aberrations; test: Influence of the p53 inhibitor pifithrin-alpha on drug susceptibility (flow cytometry, AnnexinV/7-AAD); assay type: cell-based, human
Procedure: as §1
B-CLL cells of patients with no p53 aberrations were treated with 160 nM actinomycin w or w/o 30 µM pifithrin-alpha.

Cc1c2oc3c(C)ccc(C(=O)N[C@@H]4C(=O)N[C@H](C(C)C)C(=O)N5CCC[C@H]5C(=O)N(C)CC(=O)N(C)[C@@H](C(C)C)C(=O)O[C@@H]4C)c3nc-2c(C(=O)N[C@@H]2C(=O)N[C@H](C(C)C)C(=O)N3CCC[C@H]3C(=O)N(C)CC(=O)N(C)[C@@H](C(C)C)C(=O)O[C@@H]2C)c(N)c1=O [actinomycin D] (I: T[dV]P[Sar][NMeV] / II: T[dV]P[Sar][NMeV]; ester I:1-I:C, II:1-II:C; linker I:N-II:N via Actinocin(9to1))
IC50 ([1]; 4 B-CLL cells samples from 4 different donors, 48 h, in vitro, read-out: mean IC50 (48h)): 80 nM
viability (Fig. 1) ([2]; 20 nM, 48 h, 4 p53 deleted, fludarabine resistant B-CLL patients, p < 0.001): significant viability reduction
apoptosis induced in % of B-CLL cells ([2]; 20 nM, within 48 h, del(17p)13 B-CLL cells (Fig. 1)): > 80%
viability reduction ([2]; del(17p)13 B-CLL samples derived from peripheral blood): > 45%
viability reduction ([2]; one del(17p)13 sample derived from the bone marrow): 38%
apoptosis induction ([2]; 20 µM, three B-CLL samples of patients with del(17p)13): able to induce apoptosis in all three B-CLL cells samples
effect of p53 deletion on actinomycin D susceptibility [3]: no effect
survival difference to the mock treated animals (Fig. 3) ([4]; 0,06 mg/kg daily for two weeks vs PBS): highly significant
time after the initial therapy until retreatment ([4]; CD5/CD19 counts back at the initial value at day 135): 85 days
CD5/CD19 count after treatment ([4]; treatment at day 50, three surviving animals, tail vein blood): A reduction of the CD5/CD19 count can be observed in all three animals
tumour cells after treatment ([5]; 0.05 mg/kg or 0.04 mg/kg daily for two weeks, two mice each, start 47 days after engraftment): severe reduction of tumour cells
time until tumour load increased to the initial values after the first treatment ([5]; 0.05 or 0.04 mg/kg daily for two weeks, after first treatment): 46 days
time until CD5/CD19 counts increased again after the second treatment ([5]; 0.05 or 0.04 mg/kg daily for two weeks, after retreatment): 44 days
tumour load (CD5+/CD19+ cell count), Fig. 6 ([6]; 22 days after treatment start): highly significant tumour load reduction
50 % survival time after start of treatment [6]: 103 days
tumour load reduction [6]: more than 80%

CN1CC[C@H](c2c(O)cc(O)c3c(=O)cc(-c4ccccc4Cl)oc23)[C@H](O)C1 [flavopiridol]
synergism with pifithrin-alpha ([7]; with or without 30 µM pifithrin-alpha, 48 h, 160 nM actinomycin (text; Fig. 2: 20 nM), 50 nM flavopiridol, 10 µM fludarabine): synergistic with pifithrin-alpha

Nc1nc(F)nc2c1ncn2[C@@H]1O[C@H](CO)[C@@H](O)[C@@H]1O [fludarabine]
IC50 ([1]; Homo sapiens, B-CLL, read-out: double IC50 determined for fludarabine, printed as the double IC50, unclear whether 3µM is the IC50 or its double): 3000 nM
50 % survival time after start of treatment [6]: 47 days
tumour load reduction [6]: 20%

Cc1ccc(C(=O)Cn2c3c(sc2=N)CCCC3)cc1 [pifithrin-alpha]
effect of pifithrin-alpha alone on viability of CLL cells ([7]; 30 µM, alone): no effect on viability
